The test system of data set [1] is Mycobacterium tuberculosis. Description: Antitubercular activity against Mycobacterium tuberculosis SS1. The format is functional.
Data set [2] deals with Mycobacterium tuberculosis. Description: Antitubercular activity against Mycobacterium tuberculosis SS2. The data set is classed as functional.
The test system of data set [3] is Mycobacterium tuberculosis. Put plainly: Antitubercular activity against Mycobacterium tuberculosis SS3. The data set is classed as functional.
Data set [4] relates to Mycobacterium tuberculosis. Put plainly: Antitubercular activity against Mycobacterium tuberculosis SS4. The data set is classed as functional.
The test system of data set [5] is Mycobacterium tuberculosis. Put plainly: Antitubercular activity against Mycobacterium tuberculosis SS5. The format is functional.
The test system of data set [6] is Mycobacterium tuberculosis. Description: Antitubercular activity against Mycobacterium tuberculosis SS6. The data set is classed as functional.
Data set [7] relates to Mycobacterium tuberculosis. Description: Antitubercular activity against Mycobacterium tuberculosis SS7. The format is functional.
The subject of data set [8] is Mycobacterium tuberculosis. Put plainly: Antitubercular activity against Mycobacterium tuberculosis SS8. The format is functional.
The test system of data set [9] is Mycobacterium tuberculosis. Description: Antitubercular activity against Mycobacterium tuberculosis SS9. The data set is classed as functional.
Data set [10] relates to Mycobacterium tuberculosis. Put plainly: Antitubercular activity against Mycobacterium tuberculosis SS10. The format is functional.
For data set [11], the system named is Mycobacterium tuberculosis. Description: Antitubercular activity against Mycobacterium tuberculosis SS11. The data set is classed as functional.
Data set [12] relates to Mycobacterium tuberculosis. Put plainly: Antitubercular activity against Mycobacterium tuberculosis H37Rv. The format is functional.
For data set [13], the system named is Mycobacterium tuberculosis. Put plainly: Effect on mycobacterial growth of Mycobacterium tuberculosis H37Rv infected in human J774A1 cells at 0.5 ug/mL after 7 days. The format is functional, J774.A1.
Data set [14] is described as follows: Cytotoxicity against human J774A1. The data set is classed as cell-based, J774.A1. To be noted: J774A1 cells.
Data set [15] can be described thus: Cytotoxicity against human Hep2 cells. The format is cell-based, HEp-2.
Data set [16] has as its system Mycobacterium tuberculosis. Put plainly: Effect on mycobacterial growth of Mycobacterium tuberculosis H37Rv infected in human J774A1 cells at 0.25 ug/mL after 7 days. The data set is classed as functional, J774.A1.

≈ marks a conversion by molar mass, not a printed value.

What is called MIC90 is an inhibitory concentration at the 90% level, which refers to growth in some studies and to a panel of isolates in others. The low end stands for higher susceptibility, the high end for lower susceptibility. Broadly, the CC50 is the concentration that lowers cell viability or growth by half. Read a high CC50 as better tolerance by the cells.

In the case of `CCCCn1cc(C(=O)OCC)c(=O)c2ccc3c(nnn3C)c21`, the MIC90 in data set [1], in data set [2], in [3], in [4], in [5] and in [6] was 0.5 µg/mL (≈ 1.52 µM) in each case. Moreover, the MIC90 in [7], in [8], in [9], in [10], in data set [11] and in data set [12] was 0.5 µg/mL (≈ 1.52 µM) each time. The CFU was 5000 µL⁻¹ in data set [13] and 8000 µL⁻¹ in data set [16]. The CC50 in data set [14] and in data set [15] was more than 50 µg/mL throughout.

For the origin of these results see ChEMBL document CHEMBL1146225, “[1,2,3]Triazolo[4,5-h]quinolones. A new class of potent antitubercular agents against multidrug resistant Mycobacterium tuberculosis strains” (Bioorg Med Chem Lett, 2007).
